Experimental data: PMC3004533 (Chemico-biological interactions, 2010)

Biological target: T1, COX-2 (cyclooxygenase-2) (Homo sapiens, UniProt P35354)
T1 sequence (P35354 18-604): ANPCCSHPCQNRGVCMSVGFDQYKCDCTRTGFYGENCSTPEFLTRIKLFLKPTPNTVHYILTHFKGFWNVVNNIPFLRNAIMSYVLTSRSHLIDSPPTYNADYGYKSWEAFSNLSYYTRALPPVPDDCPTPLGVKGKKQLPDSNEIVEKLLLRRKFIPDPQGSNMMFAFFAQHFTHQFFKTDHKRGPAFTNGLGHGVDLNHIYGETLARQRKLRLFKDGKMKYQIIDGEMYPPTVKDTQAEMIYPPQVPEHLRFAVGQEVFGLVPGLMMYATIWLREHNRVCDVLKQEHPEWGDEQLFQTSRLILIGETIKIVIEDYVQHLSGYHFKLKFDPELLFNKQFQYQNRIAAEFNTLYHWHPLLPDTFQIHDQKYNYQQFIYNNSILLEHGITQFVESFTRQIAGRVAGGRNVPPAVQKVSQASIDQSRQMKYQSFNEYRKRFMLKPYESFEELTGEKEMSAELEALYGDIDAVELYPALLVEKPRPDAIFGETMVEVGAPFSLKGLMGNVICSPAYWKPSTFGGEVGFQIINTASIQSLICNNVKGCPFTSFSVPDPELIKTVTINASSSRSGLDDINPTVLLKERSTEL
Assay type: biochemical
Details: read-out: Ki

Structure (SMILES) | KI (inactivation)
Cc1ccc(-c2cc(C[Se]C#N)nn2-c2ccc(S(N)(=O)=O)cc2)cc1 [selenocoxib-2, 4-(3-Selenocyanatomethyl-5-p-tolyl-1-yl)-benzenesulfonamide] | 0.73 µM
C[Se]Cc1ccc(-c2cc(C(F)(F)F)nn2-c2ccc(S(N)(=O)=O)cc2)cc1 [selenocoxib-3, 4-[5-(4-Methylseleanylmethyl-phenyl)-3-trifluoromethyl-pyrazol-1-yl]-benezenesulfonamide] | 2.4 µM
